The target of data set [1] is T1, SpPYK (Streptococcus pneumoniae, UniProt Q8DQ84).
T1 construct: gene pykF; recombinant, E. coli BL21(DE3) derivative, His60 Ni resin (tag details in supplement); homotetramer; single pyk gene
As to the kind of experiment: X-ray crystal structure (FBP, PEP/FBP at […] Å, oxalate/FBP). The settings on record: allosteric activator; effector binding site in the C domain.

Data set [2] addresses T1, SpPYK. Briefly: lactate dehydrogenase coupled assay, NADH absorbance at […] nm. Format: biochemical. The settings on record: allosteric activator (modest), 2 mM G6P; PEP varied, 3 mM ADP, pH 7.5, 25 °C.
For data set [3], the target named is T1, SpPYK. Briefly: X-ray crystal structure (PEP; PEP/FBP at […] Å). Format: binding. As to conditions: catalytic site, Mg2+ and K+.
The target of data set [4] is T1, SpPYK. Briefly: X-ray crystal structure (oxalate; oxalate/FBP). As to conditions: catalytic site; enolpyruvate analog; weak density for a second oxalate in the effector site. Format: binding.
The subject of data set [5] is Nc1ncnc2c1ncn2[C@@H]1O[C@H](COP(=O)(O)OP(=O)(O)O)[C@@H](O)[C@H]1O. As to the kind of experiment: purified protein. The settings on record: 3 mM PEP, 10 mM MgCl2, 100 mM KCl, 20 mM HEPES pH 7.5, 25 °C, Hill coefficient 1.47 ± 0.07.
Data set [6] has as its system C=C(OP(=O)(O)O)C(=O)O. As to the kind of experiment: purified protein. As to conditions: 3 mM ADP, 10 mM MgCl2, 100 mM KCl, 20 mM HEPES pH 7.5, 25 °C, no effector, Hill coefficient 1.88 ± 0.10.
Data set [7] concerns the molecule itself. As to the kind of experiment: crystal structure; X-ray crystal structures of SpPYK in six states (apo, oxalate, oxalate/FBP, FBP, PEP, PEP/FBP); vapor diffusion at 25 °C, 15 to 20 mg/ml protein in 20 mM HEPES pH 7.5, 150 mM NaCl, for the ligand-bound forms with 100 mM KCl, 20 mM MgCl2 and 5-20 mM ligand(s); protomers of the tetramer.

Turning to `O=P(O)(O)OC[C@H]1OC(O)(COP(=O)(O)O)[C@@H](O)[C@@H]1O` (stereo partly shown) [FBP, fructose 1,6-bisphosphate], the “X-ray crystal structure (FBP, PEP/FBP at 1.8 Å, oxalate/FBP)” value in data set [1] is “FBP is found at the effector binding site in the C domain”.
Regarding `O=P(O)(O)OC[C@H]1OC(O)[C@H](O)[C@@H](O)[C@@H]1O` (stereo partly shown) [G6P, glucose 6-phosphate], the “lactate dehydrogenase coupled assay, NADH absorbance at 340 nm” value in data set [2] is “only a modest activation effect was observed upon G6P addition”.
In the case of `C=C(OP(=O)(O)O)C(=O)O` [PEP, phosphoenolpyruvate], in data set [3], the “X-ray crystal structure (PEP; PEP/FBP at 1.8 Å)” value is listed as “The bound PEP or oxalate is seen in the catalytic site”.
As to `O=C(O)C(=O)O` [oxalate], the “X-ray crystal structure (oxalate; oxalate/FBP)” value in data set [4] was “The bound PEP or oxalate is seen in the catalytic site”.
Consider SpPYK (Streptococcus pneumoniae R6), for which the results for the K0.5 in data set [5] and in data set [6] were 1.09 ± 0.06 mM and 1.36 ± 0.06 mM, respectively.

B1: Streptococcus pneumoniae pyruvate kinase (enzyme)
chain: MNKRVKIVATLGPAVEIRGGKKFGEDGYWGEKLDVEASAKNIAKLIEAGANTFRFNFSHGDHQEQGERMATVKLAEKIAGKKVGFLLDTKGPEIRTELFEGEAKEYSYKTGEKIRVATKQGIKSTREVIALNVAGALDIYDDVEVGRQVLVDDGKLGLRVVAKDDATREFEVEVENDGIIAKQKGVNIPNTKIPFPALAERDNDDIRFGLEQGINFIAISFVRTAKDVNEVRAICEETGNGHVQLFAKIENQQGIDNLDEIIEAADGIMIARGDMGIEVPFEMVPVYQKMIIKKVNAAGKVVITATNMLETMTEKPRATRSEVSDVFNAVIDGTDATMLSGESANGKYPLESVTTMATIDKNAQALLNEYGRLDSDSFERNSKTEVMASAVKDATSSMDIKLVVTLTKTGHTARLISKYRPNADILALTFDELTERGLMLNWGVIPMLTDAPSSTDDMFEIAERKAVEAGLVESGDDIVIVAGVPVGEAVRTNTMRIRTVR
notes: pyruvate kinase (PYK) of Streptococcus pneumoniae, wild type; the strain of the cloned gene and the construct limits are told only in the Supporting information; Homotetramer in the crystal structures; also called SpPYK; PYK
One may read the stoichiometry N as a count of units in the complex or per binding partner. For B1, the “stoichiometry N” value in data set [7] turned out to be 4.

Values taken from paper PMC10338316, “Functional and structural characterization of Streptococcus pneumoniae pyruvate kinase involved in fosfomycin resistance” (The Journal of Biological Chemistry, 2023).
